The values below come from patent US12227480B1 (priority 2023, dated 2025).

The test system of test [1] is Mycobacterium tuberculosis MDR strain. As to the kind of experiment: microbe, parasite or virus in culture. The note with it: read-out: Anti-tubercular activity against Mycobacterium tuberculosis (MIC), MDR. The class given is cell-based.
In test [2] the test system is Mycobacterium tuberculosis XDR strain. As to the kind of experiment: microbe, parasite or virus in culture. The class given is cell-based. The note with it: read-out: Anti-tubercular activity against Mycobacterium tuberculosis (MIC), XDR.

As for `Cc1cc[n+](CC(=O)c2ccc(F)cc2)cc1.[Br-]` [Compound 3d, 1-(2-(4-Fluorophenyl)-2-oxoethyl)-4-methylpyridin-1-ium bromide], the MIC in test [1] is 8 µg/mL; in test [2], 32 µg/mL.
